Three molecules from ChEMBL document CHEMBL1201862, “PubChem BioAssay data set” (2004) can be followed below.

Assay [1] concerns the target T1, Tyrosyl-DNA phosphodiesterase 2 (Homo sapiens, UniProt O95551).
T1 sequence (O95551 whole entry): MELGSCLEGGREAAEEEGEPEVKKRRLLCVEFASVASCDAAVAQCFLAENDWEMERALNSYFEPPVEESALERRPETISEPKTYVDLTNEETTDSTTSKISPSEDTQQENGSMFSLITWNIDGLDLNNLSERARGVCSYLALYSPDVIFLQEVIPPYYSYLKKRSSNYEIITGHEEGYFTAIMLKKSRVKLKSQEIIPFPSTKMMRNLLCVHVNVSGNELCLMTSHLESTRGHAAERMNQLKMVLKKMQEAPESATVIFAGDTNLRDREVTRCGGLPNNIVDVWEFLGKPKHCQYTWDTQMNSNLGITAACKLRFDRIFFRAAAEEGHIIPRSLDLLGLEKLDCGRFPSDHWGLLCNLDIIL
As to the kind of experiment: human TDP2 enzyme inhibitors, dose response, biochemical, epi absorbance, IC50 (AID 743297).

A further assay has as its target T2, Caspase-3 (Homo sapiens, UniProt P42574).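 Also: Dose-response selectivity test against caspase-3 for candidate inhibitors of sentrin-specific proteases (SENPs).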
T2 sequence (P42574 whole entry): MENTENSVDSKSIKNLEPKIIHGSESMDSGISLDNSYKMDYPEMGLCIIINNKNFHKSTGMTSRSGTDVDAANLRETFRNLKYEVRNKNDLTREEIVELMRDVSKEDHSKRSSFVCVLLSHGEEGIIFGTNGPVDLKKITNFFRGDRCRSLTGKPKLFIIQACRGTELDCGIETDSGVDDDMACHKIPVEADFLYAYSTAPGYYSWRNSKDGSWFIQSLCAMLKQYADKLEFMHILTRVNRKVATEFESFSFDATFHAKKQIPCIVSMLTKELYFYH
The class given is functional.

Assay [2] deals with T3, Sentrin-specific protease 8 (Homo sapiens, UniProt Q96LD8).
T3 sequence (Q96LD8 whole entry): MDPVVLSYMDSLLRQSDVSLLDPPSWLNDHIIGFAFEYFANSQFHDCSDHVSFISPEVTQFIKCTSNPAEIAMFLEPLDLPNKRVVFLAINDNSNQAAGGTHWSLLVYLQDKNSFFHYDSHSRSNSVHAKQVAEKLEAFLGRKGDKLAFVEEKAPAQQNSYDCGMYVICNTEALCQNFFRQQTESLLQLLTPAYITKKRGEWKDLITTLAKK
The assay is classed as functional.

Assay [3] deals with T4, Mannose-6-phosphate isomerase (Homo sapiens, UniProt P34949).
T4 sequence (P34949 whole entry): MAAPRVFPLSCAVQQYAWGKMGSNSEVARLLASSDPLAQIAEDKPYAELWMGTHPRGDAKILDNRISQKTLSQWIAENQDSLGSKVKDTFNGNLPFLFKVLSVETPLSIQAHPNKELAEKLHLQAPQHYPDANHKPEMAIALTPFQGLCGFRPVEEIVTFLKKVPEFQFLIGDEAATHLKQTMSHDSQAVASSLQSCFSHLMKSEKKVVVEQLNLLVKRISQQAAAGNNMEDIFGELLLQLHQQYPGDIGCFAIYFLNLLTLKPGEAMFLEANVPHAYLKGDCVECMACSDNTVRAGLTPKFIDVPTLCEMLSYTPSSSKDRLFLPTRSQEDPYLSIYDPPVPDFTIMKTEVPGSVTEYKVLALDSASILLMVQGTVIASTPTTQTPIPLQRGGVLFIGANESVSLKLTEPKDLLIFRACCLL
As to the kind of experiment: human PMI inhibitors, high substrate, primary screen, biochemical, fluorescence intensity, high mannose 6-phosphate (AID 1220).

In assay [4] the target is Dual specificity tyrosine-phosphorylation-regulated kinase 4 (Homo sapiens, UniProt Q9NR20). The assay is classed as functional.
Assay [5] has as its target Proto-oncogene tyrosine-protein kinase Src (Homo sapiens, UniProt P12931). The class given is functional.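 Also: SRC entry within a kinome-wide kinase profiling panel.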
The target of assay [6] is Serine/threonine-protein kinase 3 (Homo sapiens, UniProt Q13188). The assay is classed as functional.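 Also: measured as one member of a kinome-wide kinase panel.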
The target in assay [7] is Mast/stem cell growth factor receptor Kit (Homo sapiens, UniProt P10721). The assay is classed as functional.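 Also: KIT entry within a kinase panel assay.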
For assay [8], the target named is 3-phosphoinositide-dependent protein kinase 1 (Homo sapiens, UniProt O15530). The assay is classed as functional.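 Also: value comes from the Navigating the Kinome panel, PDPK1 member.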
Assay [9] has as its target Serine/threonine-protein kinase DCLK1 (Homo sapiens, UniProt O15075). The assay is classed as functional.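 Also: affinity for DCLK1 (listed as DCAMKL1) measured as one member of a kinome-wide kinase profiling panel.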
In assay [10] the target is Dual specificity tyrosine-phosphorylation-regulated kinase 3 (Homo sapiens, UniProt O43781). The assay is classed as functional.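 Also: measured as one member of a broad kinase panel.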
Assay [11] concerns the target Tyrosine-protein kinase receptor UFO (Homo sapiens, UniProt P30530). The class given is functional.
For assay [12], the target named is Serine/threonine-protein kinase D2 (Homo sapiens, UniProt Q9BZL6). The assay is classed as functional.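 Also: measured against PRKD2 as one member of a kinome-wide kinase profiling panel.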
Sequence of Serine/threonine-protein kinase D2 (Q9BZL6 whole entry): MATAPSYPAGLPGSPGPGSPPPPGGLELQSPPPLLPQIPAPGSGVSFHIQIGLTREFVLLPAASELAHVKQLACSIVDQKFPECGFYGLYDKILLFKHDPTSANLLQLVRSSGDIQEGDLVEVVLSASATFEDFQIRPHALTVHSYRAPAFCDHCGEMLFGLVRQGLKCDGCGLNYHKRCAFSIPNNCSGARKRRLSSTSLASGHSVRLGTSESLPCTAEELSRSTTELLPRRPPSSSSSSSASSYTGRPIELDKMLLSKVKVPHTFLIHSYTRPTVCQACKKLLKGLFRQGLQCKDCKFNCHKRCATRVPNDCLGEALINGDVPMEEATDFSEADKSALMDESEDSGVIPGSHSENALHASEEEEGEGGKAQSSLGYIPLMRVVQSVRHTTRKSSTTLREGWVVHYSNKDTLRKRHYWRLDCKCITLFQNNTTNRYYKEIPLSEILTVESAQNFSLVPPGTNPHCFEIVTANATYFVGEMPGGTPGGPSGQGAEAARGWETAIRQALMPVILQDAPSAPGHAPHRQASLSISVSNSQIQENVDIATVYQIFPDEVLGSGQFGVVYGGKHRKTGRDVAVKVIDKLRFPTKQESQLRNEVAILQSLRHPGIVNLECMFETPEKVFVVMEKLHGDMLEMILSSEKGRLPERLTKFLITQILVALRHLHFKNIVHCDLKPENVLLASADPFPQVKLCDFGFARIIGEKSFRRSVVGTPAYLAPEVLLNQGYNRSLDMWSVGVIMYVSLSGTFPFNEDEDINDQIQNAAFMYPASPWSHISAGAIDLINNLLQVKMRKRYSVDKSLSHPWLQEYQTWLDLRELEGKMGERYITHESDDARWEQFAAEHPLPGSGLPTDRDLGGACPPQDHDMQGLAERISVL
Assay [13] addresses Megakaryocyte-associated tyrosine-protein kinase (Homo sapiens, UniProt P42679). The assay is classed as functional.
For assay [14], the target named is Phosphorylase b kinase gamma catalytic chain, liver/testis isoform (Homo sapiens, UniProt P15735). The class given is functional.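 Also: PHKG2 measured as one member of a kinome-wide kinase panel.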
Assay [15] deals with Fibroblast growth factor receptor 3 (Homo sapiens, UniProt P22607). The assay is classed as functional.
Assay [16] has as its target Serine/threonine-protein kinase PLK1 (Homo sapiens, UniProt P53350). The class given is functional.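 Also: PLK1 measured as one member of a kinome-wide profiling panel.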
Assay [17] addresses Lymphokine-activated killer T-cell-originated protein kinase (Homo sapiens, UniProt Q96KB5). The assay is classed as functional.
Assay [18] concerns the target Testis-specific serine/threonine-protein kinase 1 (Homo sapiens, UniProt Q9BXA7). The assay is classed as functional.
Assay [19] concerns the target cAMP-dependent protein kinase catalytic subunit PRKX (Homo sapiens, UniProt P51817). The class given is functional.
The target of assay [20] is Dual specificity mitogen-activated protein kinase kinase 2 (Homo sapiens, UniProt P36507). Put plainly: Navigating the Kinome. Panel member name: MAP2K2. The assay is classed as functional.
The target in assay [21] is Calcium/calmodulin-dependent protein kinase type II subunit alpha (Homo sapiens, UniProt Q9UQM7). Put plainly: Navigating the Kinome. Panel member name: CAMK2A. The class given is functional.
Sequence of Calcium/calmodulin-dependent protein kinase type II subunit alpha (Q9UQM7 whole entry): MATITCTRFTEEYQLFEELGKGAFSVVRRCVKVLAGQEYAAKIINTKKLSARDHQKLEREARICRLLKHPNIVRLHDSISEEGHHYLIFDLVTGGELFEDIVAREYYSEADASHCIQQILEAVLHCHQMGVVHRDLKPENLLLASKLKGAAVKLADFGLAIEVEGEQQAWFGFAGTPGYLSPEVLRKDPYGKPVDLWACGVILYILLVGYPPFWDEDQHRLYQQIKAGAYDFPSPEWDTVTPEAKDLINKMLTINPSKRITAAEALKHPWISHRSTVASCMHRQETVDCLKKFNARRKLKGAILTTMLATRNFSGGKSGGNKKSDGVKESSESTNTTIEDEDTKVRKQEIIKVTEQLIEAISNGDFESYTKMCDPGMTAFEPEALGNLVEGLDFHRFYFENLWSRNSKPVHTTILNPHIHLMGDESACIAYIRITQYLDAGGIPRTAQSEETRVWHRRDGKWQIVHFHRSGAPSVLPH
The target in assay [22] is Dual specificity tyrosine-phosphorylation-regulated kinase 1B (Homo sapiens, UniProt Q9Y463). Put plainly: Navigating the Kinome. Panel member name: DYRK1B. The assay is classed as functional.
The target of another assay is Activated CDC42 kinase 1 (Homo sapiens, UniProt Q07912). As to the kind of experiment: Navigating the Kinome. Panel member name: ACK1. The class given is functional.
Sequence of Activated CDC42 kinase 1 (Q07912 whole entry): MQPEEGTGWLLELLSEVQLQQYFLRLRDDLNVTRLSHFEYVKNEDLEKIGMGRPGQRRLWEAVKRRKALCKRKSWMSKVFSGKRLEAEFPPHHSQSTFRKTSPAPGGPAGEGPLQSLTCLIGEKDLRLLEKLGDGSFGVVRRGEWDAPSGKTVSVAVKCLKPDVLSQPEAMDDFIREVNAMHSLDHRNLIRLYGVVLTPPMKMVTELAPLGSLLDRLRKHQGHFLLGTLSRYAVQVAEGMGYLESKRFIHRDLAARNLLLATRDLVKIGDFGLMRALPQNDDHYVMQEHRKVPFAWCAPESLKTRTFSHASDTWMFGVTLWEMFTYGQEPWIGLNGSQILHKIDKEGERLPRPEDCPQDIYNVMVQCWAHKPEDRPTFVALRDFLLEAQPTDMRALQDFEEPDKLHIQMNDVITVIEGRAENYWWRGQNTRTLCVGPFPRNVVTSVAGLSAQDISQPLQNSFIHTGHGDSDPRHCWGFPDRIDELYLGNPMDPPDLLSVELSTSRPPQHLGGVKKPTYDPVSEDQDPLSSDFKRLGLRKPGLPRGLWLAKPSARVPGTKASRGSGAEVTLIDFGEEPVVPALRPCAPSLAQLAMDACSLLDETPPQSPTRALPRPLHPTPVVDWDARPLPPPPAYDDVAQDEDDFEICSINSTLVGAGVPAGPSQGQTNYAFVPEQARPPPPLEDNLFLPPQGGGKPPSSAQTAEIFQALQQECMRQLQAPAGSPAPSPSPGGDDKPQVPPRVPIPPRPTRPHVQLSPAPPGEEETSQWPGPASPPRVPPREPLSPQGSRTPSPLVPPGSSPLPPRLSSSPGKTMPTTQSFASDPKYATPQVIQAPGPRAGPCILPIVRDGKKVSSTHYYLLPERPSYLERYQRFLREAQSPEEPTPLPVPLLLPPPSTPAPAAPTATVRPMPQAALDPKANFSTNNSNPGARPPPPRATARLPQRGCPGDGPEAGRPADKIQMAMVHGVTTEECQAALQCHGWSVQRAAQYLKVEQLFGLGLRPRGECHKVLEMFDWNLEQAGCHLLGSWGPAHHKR
For assay [23], the target named is Dual specificity mitogen-activated protein kinase kinase 1 (Homo sapiens, UniProt Q02750). Put plainly: Navigating the Kinome. Panel member name: MAP2K1. The assay is classed as functional.
In assay [24] the target is cAMP-dependent protein kinase catalytic subunit alpha (Homo sapiens, UniProt P17612). The class given is functional.
Assay [25] has as its target Platelet-derived growth factor receptor alpha (Homo sapiens, UniProt P16234). As to the kind of experiment: Navigating the Kinome. Panel member name: PDGFRA. The class given is functional.
In assay [26] the target is Dual specificity protein kinase CLK4 (Homo sapiens, UniProt Q9HAZ1). The assay is classed as functional.
Sequence of Dual specificity protein kinase CLK4 (Q9HAZ1 whole entry): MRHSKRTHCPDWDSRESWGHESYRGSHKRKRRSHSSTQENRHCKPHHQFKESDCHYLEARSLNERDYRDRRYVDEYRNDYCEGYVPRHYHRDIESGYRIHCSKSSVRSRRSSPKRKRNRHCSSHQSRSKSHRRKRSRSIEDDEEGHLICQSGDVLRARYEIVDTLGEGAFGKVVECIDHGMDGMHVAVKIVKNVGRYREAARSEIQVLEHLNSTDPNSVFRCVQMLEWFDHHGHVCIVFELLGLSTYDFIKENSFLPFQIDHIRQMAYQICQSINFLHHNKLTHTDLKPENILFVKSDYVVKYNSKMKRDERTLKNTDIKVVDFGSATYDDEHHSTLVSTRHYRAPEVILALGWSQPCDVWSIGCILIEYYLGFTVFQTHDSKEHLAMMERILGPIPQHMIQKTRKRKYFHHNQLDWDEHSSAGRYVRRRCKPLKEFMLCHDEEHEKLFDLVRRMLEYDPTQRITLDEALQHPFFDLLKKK

Active and inactive are the calls of the source.

Sequence of Platelet-derived growth factor receptor alpha (P16234 whole entry): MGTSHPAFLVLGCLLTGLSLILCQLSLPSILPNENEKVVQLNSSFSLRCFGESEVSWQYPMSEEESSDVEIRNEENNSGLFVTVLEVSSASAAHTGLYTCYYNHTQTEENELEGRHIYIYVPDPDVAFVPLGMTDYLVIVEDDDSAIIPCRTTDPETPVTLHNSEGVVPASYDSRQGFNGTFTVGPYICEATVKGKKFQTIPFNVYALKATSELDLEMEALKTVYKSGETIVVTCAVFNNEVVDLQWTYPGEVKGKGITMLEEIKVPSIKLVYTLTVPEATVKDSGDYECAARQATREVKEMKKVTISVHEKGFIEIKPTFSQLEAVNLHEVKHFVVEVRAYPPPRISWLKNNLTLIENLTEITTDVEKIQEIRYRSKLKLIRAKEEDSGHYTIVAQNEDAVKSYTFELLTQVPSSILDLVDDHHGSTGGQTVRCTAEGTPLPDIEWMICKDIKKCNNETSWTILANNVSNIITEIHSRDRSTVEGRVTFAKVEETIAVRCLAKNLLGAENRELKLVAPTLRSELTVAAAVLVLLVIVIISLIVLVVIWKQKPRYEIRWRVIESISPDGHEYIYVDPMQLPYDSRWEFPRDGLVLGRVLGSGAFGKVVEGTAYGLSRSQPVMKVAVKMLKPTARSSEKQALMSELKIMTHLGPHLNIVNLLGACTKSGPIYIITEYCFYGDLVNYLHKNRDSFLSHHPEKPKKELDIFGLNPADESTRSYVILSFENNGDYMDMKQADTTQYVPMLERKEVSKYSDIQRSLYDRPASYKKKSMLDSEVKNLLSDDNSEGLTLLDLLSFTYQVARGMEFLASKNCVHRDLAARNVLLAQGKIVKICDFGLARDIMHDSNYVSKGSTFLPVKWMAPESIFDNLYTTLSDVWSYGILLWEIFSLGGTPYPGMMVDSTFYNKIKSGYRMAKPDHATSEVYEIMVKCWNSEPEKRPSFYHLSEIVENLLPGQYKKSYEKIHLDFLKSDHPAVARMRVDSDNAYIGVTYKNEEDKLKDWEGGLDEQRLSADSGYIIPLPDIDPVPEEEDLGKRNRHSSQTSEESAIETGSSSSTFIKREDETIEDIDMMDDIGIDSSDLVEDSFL
Sequence of Tyrosine-protein kinase receptor UFO (P30530 whole entry): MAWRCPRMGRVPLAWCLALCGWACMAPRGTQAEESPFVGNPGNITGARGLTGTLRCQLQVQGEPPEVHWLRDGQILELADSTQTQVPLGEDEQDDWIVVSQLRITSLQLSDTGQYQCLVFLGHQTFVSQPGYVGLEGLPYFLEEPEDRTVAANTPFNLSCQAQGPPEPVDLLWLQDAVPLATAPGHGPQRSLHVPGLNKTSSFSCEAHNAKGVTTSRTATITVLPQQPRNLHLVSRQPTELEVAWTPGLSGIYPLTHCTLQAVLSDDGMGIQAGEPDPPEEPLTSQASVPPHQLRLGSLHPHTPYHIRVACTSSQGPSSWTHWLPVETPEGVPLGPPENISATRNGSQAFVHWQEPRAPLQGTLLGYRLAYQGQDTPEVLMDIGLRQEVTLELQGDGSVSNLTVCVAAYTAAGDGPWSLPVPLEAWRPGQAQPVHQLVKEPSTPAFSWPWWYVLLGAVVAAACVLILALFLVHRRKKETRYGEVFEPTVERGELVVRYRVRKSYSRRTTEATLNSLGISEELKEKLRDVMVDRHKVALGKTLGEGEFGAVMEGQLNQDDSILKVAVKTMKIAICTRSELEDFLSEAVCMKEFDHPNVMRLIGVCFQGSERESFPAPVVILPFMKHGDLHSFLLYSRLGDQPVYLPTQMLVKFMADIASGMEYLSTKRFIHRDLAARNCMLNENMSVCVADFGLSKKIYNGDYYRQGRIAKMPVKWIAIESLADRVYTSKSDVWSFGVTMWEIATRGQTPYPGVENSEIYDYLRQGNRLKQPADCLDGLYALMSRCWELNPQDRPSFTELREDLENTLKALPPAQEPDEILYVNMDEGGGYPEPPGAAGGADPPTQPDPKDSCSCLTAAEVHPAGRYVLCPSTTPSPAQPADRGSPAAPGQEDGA

In the case of `COc1ccc(-n2c(NC(=O)c3ccco3)c(C#N)c3nc4ccccc4nc32)cc1`, the IC50 (usually the concentration that gives 50% inhibition) in [1] was > 128000 nM (inactive); on Caspase-3 it was 26600 nM (active); in [2] it was 7570 nM (active); in assay [3], > 50000 nM (not active).
Turning to `Cc1n[nH]c2ccc(-c3cncc(OCC(N)Cc4ccc(Cl)c(Cl)c4)c3)cc12` (stereo not drawn), the Ki (as a rule, the equilibrium dissociation constant of an inhibitor or competing ligand from its target) in assay [4] was 1000 nM (active); in [5] it was > 2000 nM (inactive); in assay [6], 63.1 nM (active); in assay [7], > 1260 nM (inactive); in assay [8] it was 2000 nM (active); in assay [9], 2000 nM (active). Also, the Ki in assay [10] is 10 nM (active); in assay [11] it was 200 nM (active); in [12] it was 31.6 nM (active); in assay [13], > 2000 nM (inactive); in [14] it was 1000 nM (active); in assay [15] it was > 2000 nM (inactive). Moreover, the Ki in [16] is > 7940 nM (inactive); in assay [17] it was 3980 nM (active); in assay [18], 100 nM (active).
As for `[2H]C([2H])([2H])Oc1cccc(C(C)NC(=O)c2sc(-c3ccncc3)nc2C)c1` (stereo not drawn), the Ki in assay [19] is > 3160 nM (inactive); in assay [20] it was > 3980 nM (inactive); in [21], > 3980 nM (inactive); in assay [22], > 2510 nM (inactive); on Activated CDC42 kinase 1 it was > 3980 nM (inactive); in assay [23], > 3160 nM (inactive). For the same molecule, the Ki is > 1260 nM (inactive) in assay [24], > 2510 nM (inactive) in [25] and > 2510 nM (inactive) in assay [26].
